According to PubChem BioAssay (NCI):
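Method: 48-hour compound exposure of cells in 96-well plates, five concentrations, linear interpolation of endpoints. Here, GI50 denotes the concentration required for 50% inhibition of growth. TGI denotes the concentration required for complete inhibition of growth.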

How the values were obtained:
Assay in all cases: growth of human tumour cells (NCI), 48 h
DU-145 prostate = tested on: DU-145 prostate
OVCAR-8 ovarian = tested on: OVCAR-8 ovarian
OVCAR-5 ovarian = tested on: OVCAR-5 ovarian
U251 CNS = tested on: U251 CNS
PC-3 prostate = tested on: PC-3 prostate
SF-539 CNS = tested on: SF-539 CNS
IGROV1 ovarian = tested on: IGROV1 ovarian
A549 NSCLC = tested on: A549 NSCLC
MOLT-4 leukemia = tested on: MOLT-4 leukemia
SK-MEL-28 melanoma = tested on: SK-MEL-28 melanoma
HL-60(TB) leukemia = tested on: HL-60(TB) leukemia
UO-31 renal = tested on: UO-31 renal
SN12C renal = tested on: SN12C renal
SNB-19 CNS = tested on: SNB-19 CNS
SK-MEL-5 melanoma = tested on: SK-MEL-5 melanoma
UACC-62 melanoma = tested on: UACC-62 melanoma
SK-MEL-2 melanoma = tested on: SK-MEL-2 melanoma
T-47D breast = tested on: T-47D breast
UACC-257 melanoma = tested on: UACC-257 melanoma
MDA-MB-231 breast = tested on: MDA-MB-231 breast
NCI-H23 lung = tested on: NCI-H23 lung
NCI-H460 lung = tested on: NCI-H460 lung
SF-268 CNS = tested on: SF-268 CNS
OVCAR-3 ovarian = tested on: OVCAR-3 ovarian
EKVX NSCLC = tested on: EKVX NSCLC
NCI-H522 lung = tested on: NCI-H522 lung
NCI-H226 lung = tested on: NCI-H226 lung
TK-10 renal = tested on: TK-10 renal
K-562 leukemia = tested on: K-562 leukemia
NCI/ADR-RES ovarian = tested on: NCI/ADR-RES ovarian
HS 578T breast = tested on: HS 578T breast
KM12 colon = tested on: KM12 colon
HCC-2998 colon = tested on: HCC-2998 colon
COLO 205 colon = tested on: COLO 205 colon
HOP-62 NSCLC = tested on: HOP-62 NSCLC
MCF7 breast = tested on: MCF7 breast
SF-295 CNS = tested on: SF-295 CNS
RXF 393 renal = tested on: RXF 393 renal
HOP-92 NSCLC = tested on: HOP-92 NSCLC
M14 melanoma = tested on: M14 melanoma
HT29 colon = tested on: HT29 colon
CAKI-1 renal = tested on: CAKI-1 renal
786-0 renal = tested on: 786-0 renal

Compound `Cc1ccc(/C=C2/SC(Nc3nc(-c4csc(NC5=NC(=O)/C(=C\c6ccc(C)cc6)S5)n4)cs3)=NC2=O)cc1` has a GI50 (DU-145 prostate) of 9.28 µM, a TGI (DU-145 prostate) of over 50 µM and a GI50 (OVCAR-8 ovarian) of 6.05 µM. The TGI (OVCAR-8 ovarian) was 26.6 µM, the GI50 (OVCAR-5 ovarian) was 18.9 µM and the TGI (OVCAR-5 ovarian) was over 50 µM. It also gave a GI50 (U251 CNS) of 3.43 µM, a TGI (U251 CNS) of over 50 µM and a GI50 (PC-3 prostate) of 6.52 µM. For the same compound, the TGI (PC-3 prostate) was over 50 µM, the GI50 (SF-539 CNS) was 13.5 µM and the TGI (SF-539 CNS) was 39.7 µM. The GI50 (IGROV1 ovarian) was 24 µM, the TGI (IGROV1 ovarian) was over 50 µM and the GI50 (A549 NSCLC) was 7 µM. It also gave a TGI (A549 NSCLC) of 47.6 µM, a GI50 (MOLT-4 leukemia) of 18.5 µM and a TGI (MOLT-4 leukemia) of over 50 µM. It also gave a GI50 (SK-MEL-28 melanoma) of 25 µM, a TGI (SK-MEL-28 melanoma) of over 50 µM and a GI50 (HL-60(TB) leukemia) of 2.03 µM. For the same compound, the TGI (HL-60(TB) leukemia) was 29.9 µM, the GI50 (UO-31 renal) was 17.9 µM and the TGI (UO-31 renal) was over 50 µM. For the same compound, the GI50 (SN12C renal) was 5.54 µM, the TGI (SN12C renal) was over 50 µM and the GI50 (SNB-19 CNS) was 12.6 µM. For the same compound, the TGI (SNB-19 CNS) was over 50 µM, the GI50 (SK-MEL-5 melanoma) was 0.0217 µM and the TGI (SK-MEL-5 melanoma) was 1.4 µM. It also gave a GI50 (UACC-62 melanoma) of 1.95 µM, a TGI (UACC-62 melanoma) of 13.6 µM and a GI50 (SK-MEL-2 melanoma) of over 50 µM. For the same compound, the TGI (SK-MEL-2 melanoma) was over 50 µM, the GI50 (T-47D breast) was 35.3 µM and the TGI (T-47D breast) was over 50 µM. It also gave a GI50 (UACC-257 melanoma) of 2.81 µM, a TGI (UACC-257 melanoma) of 14.6 µM and a GI50 (MDA-MB-231 breast) of 9.76 µM. It also gave a TGI (MDA-MB-231 breast) of 40.6 µM, a GI50 (NCI-H23 lung) of 12 µM and a TGI (NCI-H23 lung) of over 50 µM. It also gave a GI50 (NCI-H460 lung) of 4.36 µM, a TGI (NCI-H460 lung) of over 50 µM and a GI50 (SF-268 CNS) of 8.98 µM. It also gave a TGI (SF-268 CNS) of over 50 µM, a GI50 (OVCAR-3 ovarian) of 3.28 µM and a TGI (OVCAR-3 ovarian) of 33.9 µM. It also gave a GI50 (EKVX NSCLC) of 14.9 µM, a TGI (EKVX NSCLC) of over 50 µM and a GI50 (NCI-H522 lung) of 21.6 µM. It also gave a TGI (NCI-H522 lung) of over 50 µM, a GI50 (NCI-H226 lung) of 1.58 µM and a TGI (NCI-H226 lung) of 28 µM. The GI50 (TK-10 renal) was 8.49 µM, the TGI (TK-10 renal) was 26.6 µM and the GI50 (K-562 leukemia) was 1.91 µM. The TGI (K-562 leukemia) was over 50 µM, the GI50 (NCI/ADR-RES ovarian) was 14.3 µM and the TGI (NCI/ADR-RES ovarian) was over 50 µM. For the same compound, the GI50 (HS 578T breast) was 21.9 µM, the TGI (HS 578T breast) was over 50 µM and the GI50 (KM12 colon) was 3.47 µM. The TGI (KM12 colon) was over 50 µM, the GI50 (HCC-2998 colon) was 7.23 µM and the TGI (HCC-2998 colon) was 27.7 µM. For the same compound, the GI50 (COLO 205 colon) was 20.2 µM, the TGI (COLO 205 colon) was over 50 µM and the GI50 (HOP-62 NSCLC) was 1.94 µM. It also gave a TGI (HOP-62 NSCLC) of 15.5 µM, a GI50 (MCF7 breast) of 2.3 µM and a TGI (MCF7 breast) of over 50 µM. For the same compound, the GI50 (SF-295 CNS) was 6.66 µM, the TGI (SF-295 CNS) was over 50 µM and the GI50 (RXF 393 renal) was 23.8 µM. It also gave a TGI (RXF 393 renal) of over 50 µM, a GI50 (HOP-92 NSCLC) of 7.03 µM and a TGI (HOP-92 NSCLC) of 24.5 µM. For the same compound, the GI50 (M14 melanoma) was 1.31 µM, the TGI (M14 melanoma) was 7.74 µM and the GI50 (HT29 colon) was 21.1 µM. For the same compound, the TGI (HT29 colon) was over 50 µM, the GI50 (CAKI-1 renal) was 11.1 µM and the TGI (CAKI-1 renal) was over 50 µM. For the same compound, the GI50 (786-0 renal) was 7.68 µM and the TGI (786-0 renal) was 25.6 µM.
